This is an account of results in ChEMBL document CHEMBL4118098, “Discovery of DS28120313 as a potent orally active hepcidin production inhibitor: Design and optimization of novel 4,6-disubstituted indazole derivatives” (Bioorg Med Chem Lett, 2017).

For orientation: inhibition means the relative decrease from the control value, in per cent.

Experiment [1] concerns the target Mitogen-activated protein kinase 11 (Homo sapiens) (UniProt Q15759). Nature of the experiment: Inhibition of p38-beta2 (unknown origin) at 0.164 uM relative to control.
The target of experiment [2] is Mast/stem cell growth factor receptor Kit (Homo sapiens) (UniProt P10721). The experiment can be described thus: Inhibition of KIT (unknown origin) at 0.164 uM relative to control.
For experiment [3], the target named is T1, Serine/threonine-protein kinase D1 (Homo sapiens) (UniProt Q15139).
T1 sequence (whole entry): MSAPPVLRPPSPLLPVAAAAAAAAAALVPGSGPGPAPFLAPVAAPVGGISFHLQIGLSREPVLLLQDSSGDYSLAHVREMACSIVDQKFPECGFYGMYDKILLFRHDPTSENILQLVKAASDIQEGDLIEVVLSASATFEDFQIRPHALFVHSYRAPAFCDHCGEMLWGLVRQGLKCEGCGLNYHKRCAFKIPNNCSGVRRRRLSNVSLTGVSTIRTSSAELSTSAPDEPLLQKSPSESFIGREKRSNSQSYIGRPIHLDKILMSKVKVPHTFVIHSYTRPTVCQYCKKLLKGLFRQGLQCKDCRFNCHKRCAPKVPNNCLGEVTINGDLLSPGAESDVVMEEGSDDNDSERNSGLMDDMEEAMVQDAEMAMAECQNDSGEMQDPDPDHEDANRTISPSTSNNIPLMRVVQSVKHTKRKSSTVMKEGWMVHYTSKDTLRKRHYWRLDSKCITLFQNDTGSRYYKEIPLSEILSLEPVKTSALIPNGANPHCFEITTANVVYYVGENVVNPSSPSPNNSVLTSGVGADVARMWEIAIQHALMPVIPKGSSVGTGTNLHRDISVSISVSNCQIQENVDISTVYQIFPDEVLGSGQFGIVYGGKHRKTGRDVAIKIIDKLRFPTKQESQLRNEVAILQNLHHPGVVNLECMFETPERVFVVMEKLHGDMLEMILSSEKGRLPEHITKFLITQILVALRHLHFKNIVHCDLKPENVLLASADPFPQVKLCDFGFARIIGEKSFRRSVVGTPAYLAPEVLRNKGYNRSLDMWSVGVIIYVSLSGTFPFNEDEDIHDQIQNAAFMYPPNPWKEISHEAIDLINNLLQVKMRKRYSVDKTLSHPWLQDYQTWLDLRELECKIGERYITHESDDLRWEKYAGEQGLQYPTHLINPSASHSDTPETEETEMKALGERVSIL
The experiment can be described thus: Inhibition of PKD1 (unknown origin) at 0.164 uM relative to control.

In experiment [4] the test system is Mast/stem cell growth factor receptor Kit (Homo sapiens), P10721 [T670I]. The experiment can be described thus: Inhibition of KIT T670I mutant (unknown origin) at 0.164 uM relative to control.
The target of experiment [5] is Death-associated protein kinase 1 (Homo sapiens) (UniProt P53355). Nature of the experiment: Inhibition of DAPK1 (unknown origin) at 0.164 uM relative to control.
Experiment [6] deals with Protein kinase C beta type (Homo sapiens) (UniProt P05771). Nature of the experiment: Inhibition of PKC-beta2 (unknown origin) at 0.164 uM relative to control.
Experiment [7] addresses BDNF/NT-3 growth factors receptor (Homo sapiens) (UniProt Q16620). Nature of the experiment: Inhibition of NTRK2 (unknown origin) at 0.164 uM relative to control.
For experiment [8], the target named is T2, Tyrosine-protein kinase TXK (Homo sapiens) (UniProt P42681).
T2 sequence (whole entry): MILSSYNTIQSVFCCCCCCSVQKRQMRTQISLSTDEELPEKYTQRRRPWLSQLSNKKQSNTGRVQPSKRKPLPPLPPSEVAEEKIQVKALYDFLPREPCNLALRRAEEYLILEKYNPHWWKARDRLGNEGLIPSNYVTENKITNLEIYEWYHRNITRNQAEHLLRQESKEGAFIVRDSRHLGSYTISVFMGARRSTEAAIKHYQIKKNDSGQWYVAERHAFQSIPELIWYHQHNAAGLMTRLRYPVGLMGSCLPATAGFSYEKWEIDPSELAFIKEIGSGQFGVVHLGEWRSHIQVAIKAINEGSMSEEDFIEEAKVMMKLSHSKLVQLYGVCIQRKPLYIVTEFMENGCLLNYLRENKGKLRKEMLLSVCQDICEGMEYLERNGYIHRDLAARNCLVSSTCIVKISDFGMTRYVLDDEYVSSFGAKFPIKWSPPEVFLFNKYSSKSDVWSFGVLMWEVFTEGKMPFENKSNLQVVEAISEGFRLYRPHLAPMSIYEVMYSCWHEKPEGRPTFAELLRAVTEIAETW
The experiment can be described thus: Inhibition of TXK (unknown origin) at 0.45 uM relative to control.

Experiment [9] deals with Glycogen synthase kinase-3 alpha (Homo sapiens) (UniProt P49840). The experiment can be described thus: Inhibition of GSK3-alpha (unknown origin) at 0.19 uM relative to control.
Experiment [10] addresses Activated CDC42 kinase 1 (Homo sapiens) (UniProt Q07912). The experiment can be described thus: Inhibition of ACK (unknown origin) at 0.19 uM relative to control.
Experiment [11] concerns the target Protein-tyrosine kinase 2-beta (Homo sapiens) (UniProt Q14289). Nature of the experiment: Inhibition of PYK2 (unknown origin) at 0.19 uM relative to control.
Experiment [12] addresses Inhibitor of nuclear factor kappa-B kinase subunit epsilon (Homo sapiens) (UniProt Q14164). The experiment can be described thus: Inhibition of IKBKE (unknown origin) at 0.19 uM relative to control.
In experiment [13] the target is Interleukin-1 receptor-associated kinase 1 (Homo sapiens) (UniProt P51617). Nature of the experiment: Inhibition of IRAK1 (unknown origin) at 0.19 uM relative to control.
Experiment [14] deals with Tyrosine-protein kinase ITK/TSK (Homo sapiens) (UniProt Q08881). Nature of the experiment: Inhibition of ITK (unknown origin) at 0.19 uM relative to control.
Experiment [15] deals with RAC-gamma serine/threonine-protein kinase (Homo sapiens) (UniProt Q9Y243). Nature of the experiment: Inhibition of AKT3 (unknown origin) at 0.19 uM relative to control.
In experiment [16] the target is Calcium/calmodulin-dependent protein kinase type IV (Homo sapiens) (UniProt Q16566). The experiment can be described thus: Inhibition of CAMK4 (unknown origin) at 0.19 uM relative to control.
For experiment [17], the target named is Serine/threonine-protein kinase 10 (Homo sapiens) (UniProt O94804). The experiment can be described thus: Inhibition of LOK (unknown origin) at 0.19 uM relative to control.
In experiment [18] the test system is Tyrosine-protein kinase ABL1 (Homo sapiens), P00519 [T315I]. The experiment can be described thus: Inhibition of Abl T315I mutant (unknown origin) at 0.19 uM relative to control.
For experiment [19], the target named is Ribosomal protein S6 kinase alpha-4 (Homo sapiens) (UniProt O75676). Nature of the experiment: Inhibition of MSK2 (unknown origin) at 0.19 uM relative to control.
Experiment [20] addresses Mitogen-activated protein kinase kinase kinase kinase 5 (Homo sapiens) (UniProt Q9Y4K4). The experiment can be described thus: Inhibition of KHS1 (unknown origin) at 0.19 uM relative to control.
In experiment [21] the target is Serine/threonine-protein kinase pim-1 (Homo sapiens) (UniProt P11309). Nature of the experiment: Inhibition of PIM1 (unknown origin) at 0.19 uM relative to control.

Consider `COC(=O)Nc1cc(-c2c(C3CC3)n[nH]c2C)cc2[nH]ncc12`, for which the inhibition in experiment [1] was 1.7%; in [2] it was 4%; in experiment [3], -3%; in experiment [4] it was 1%; in [5], -3.7%; in experiment [6], 5.7%. Besides, the inhibition in experiment [7] came to 4%.
`Cc1n[nH]c(C)c1-c1ccc2c(NC(=O)c3ccc(N4CCN(C)CC4)cc3)n[nH]c2c1`: in experiment [8], the inhibition was -0.7%.
Turning to `Cc1[nH]nc(C2CC2)c1-c1ccc2c(-c3ccc(N4CCN(C)CC4)nc3)n[nH]c2c1`, the inhibition was 1.7% in experiment [9]; 3% in [10]; -1.7% in experiment [11]; 1% in [12]; -2.7% in experiment [13]; 24.7% in experiment [14]. Further, the inhibition is 0.7% in experiment [15]; 1.3% in experiment [16]; 4.3% in experiment [17]; 51.7% in experiment [18]; -3.3% in experiment [19]; 80.3% in experiment [20]. For the same molecule, the inhibition in experiment [21] is -1.3%.
